Experiments:
Assay type in all cases: in vivo
[1] = system: Puccinia recondita var. tritici; test: wheat leaf rust control on wheat seedlings; details: 100 ppm, sprayed day before inoculation
Procedure: (§1) Compounds of this invention were dissolved in acetone in an amount equal to 6% of the final volume and then suspended at a concentration of 100 ppm in purified water containing 250 ppm of the surfactant TREM 014 (polyhydric alcohol esters). This suspension was sprayed to the point of run-off on wheat seedlings. The following day, the plants were inoculated with a spore suspension of Puccinia recondita var. tritici, causal agent of wheat leaf rust, and incubated in a saturated humidity chamber at 20° for 24 hours and then in a growth room for an additional 7 days, when disease ratings were made. Treated plants from successful treatments had few or no rust pustules while the untreated plants had numerous rust pustules on each leaf.

[2] = system: Phytophthora infestans; test: whole plant or invertebrate; details: for pest or weed control at 100 ppm: Phytophthora infestans, in Solanum lycopersicum, 168 h, read-out: % Control of Tomato Late Blight
[3] = system: Cercospora arachidicola; test: peanut early leafspot control on peanut seedlings; details: for pest or weed control at 100 ppm: Mycosphaerella arachidis, 336 h
Procedure: Compounds of the previous examples were again dissolved in acetone in an amount equal to 6% of the final volume and then suspended at a concentration of 100 ppm in purified water containing 250 ppm of the surfactant TREM 014 (polyhydric alcohol esters). This suspension was sprayed to the point of run-off on peanut seedlings. The following day, the plants were inoculated with a spore suspension of Cercospora arachidicola, causal agent of peanut early leafspot, and incubated in a saturated humidity chamber at 27° for 24 hours and then in a growth room for an additional 14 days, when disease ratings were made. Treated plants from successful treatments had few or no leafspots while the untreated plants had numerous leafspots on each leaf.

[4] = system: Venturia inaequalis; test: apple scab control on apple seedlings; details: 100 ppm; for pest or weed control at 100 ppm: Venturia inaequalis
Procedure: as §1, with “apple” for “wheat”, “the fungus Venturia inaequalis,” for “Puccinia recondita var. tritici,”, “apple scab,” for “wheat leaf rust,”, “10-12 days.” for “7 days, when disease ratings were made.”, “apple scab lesions when compared to” for “rust pustules while the”, “which were covered with scab lesions.” for “had numerous rust pustules on each leaf.”

[5] = system: Erysiphe cichoracearum; test: cucumber powdery mildew control on cucumber seedlings; details: 7 days; for pest or weed control at 100 ppm: Golovinomyces cichoracearum, 168 h
Procedure: Compounds of the previous examples were again dissolved in acetone in an amount equal to 6% of the final volume and then suspended at a concentration of 100 ppm in purified water containing 250 ppm of the surfactant TREM 014 (polyhydric alcohol esters). This suspension was sprayed to the point of run-off on cucumber seedlings. The following day, the plants were inoculated with a spore suspension of the fungus Erysiphe cichoracearum, causal agent of cucumber powdery mildew, and incubated in a growth room for 7 days. Disease ratings were then made. Treated plants from successful treatments had little or no powdery mildew in contrast to untreated plants which were covered with powdery mildew.

[6] = system: Helminthosporium maydis; test: southern corn leaf blight control on corn seedlings; details: for pest or weed control at 100 ppm: Bipolaris maydis, 168 h
Procedure: Compounds of the previous example were again dissolved in acetone in an amount equal to 6% of the final volume and then suspended at a concentration of 100 ppm in purified water containing 250 ppm of the surfactant TREM 014 (polyhydric alcohol esters). This suspension was sprayed to the point of run-off on corn seedlings. The following day, the plants were inoculated with a spore suspension of Helminthosporium maydis, causal agent of southern corn leaf blight, and incubated in a saturated humidity chamber at 20° for 24 hours and then in a growth room for an additional 7 days, when disease ratings were made. Treated plants from successful treatments had few lesions while the untreated plants had numerous lesions on each leaf.

[7] = system: Rhizoctonia solani; test: rice sheath blight control on rice seedlings; details: 7 days; for pest or weed control at 100 ppm: Rhizoctonia solani, 168 h
Procedure: Several compounds of the previous examples were again dissolved in acetone in an amount equal to 6% of the final volume and then suspended at a concentration of 100 ppm in purified water containing 250 ppm of the surfactant TREM 014 (polyhydric alcohol esters). This suspension was sprayed to the point of run-off on rice seedlings. The following day, the plants were inoculated with a mixture of bran and the mycelium of Rhizoctonia solani, causal agent of sheath blight of rice, and incubated in a growth room for 7 days. Disease ratings were then made. Treated plants from successful treatments had little sheath blight in contrast to untreated plants which were covered with sheath blight.

[8] = system: Pyricularia oryzae; test: whole plant or invertebrate; details: 168 h, read-out: % Control of Rice Blast

`C[Si](C)(Cn1ccnc1)c1ccc(-c2ccccc2)cc1.[Cl][Cu]` [1:1 complex of (1,1'-Biphenyl-4-yl)dimethyl(1H-imidazol-1-ylmethyl)silane and Cuprous Chloride] was tested, and the “% Control Wheat Leaf Rust” value [1] was 100%, the “% Control of Tomato Late Blight” value ([2]; 100 ppm) was 0% and the “% Control Peanut Early Leafspot” value ([3]; 100 ppm) was 100%. The “% Control Apple Scab” value [4] was 100%, the “% Control Cucumber Powdery Mildew” value ([5]; 100 ppm) was 100% and the “% Control of Southern Corn Leaf Blight” value ([6]; 100 ppm) was 0%. For the same compound, the “% Control of Rice Sheath Blight” value ([7]; 100 ppm) was 50%.

For `C[Si](C)(Cn1ccnc1)c1ccccc1-c1ccccc1` [(1,1'-Biphenyl-2-yl)dimethyl(1H-imidazol-1-ylmethyl)silane], the pest or weed control at 100 ppm [1] was 0%, the pest or weed control at 100 ppm [2] was 0% and the pest or weed control at 100 ppm [3] was 30%. It also gave a pest or weed control at 100 ppm [4] of 90%, a pest or weed control at 100 ppm [5] of 50% and a pest or weed control at 100 ppm [6] of 0%. For the same compound, the pest or weed control at 100 ppm [7] was 90% and the pest or weed control at 100 ppm [8] was 90%.

Compound `C[Si](C)(Cn1ccnc1)c1cccc(-c2ccccc2)c1` [(1,1'-Biphenyl-3-yl)dimethyl(1H-imidazol-1-ylmethyl)silane] has a pest or weed control at 100 ppm [1] of 90%, a pest or weed control at 100 ppm [2] of 0% and a pest or weed control at 100 ppm [3] of 80%. It also gave a pest or weed control at 100 ppm [4] of 90%, a pest or weed control at 100 ppm [5] of 0% and a pest or weed control at 100 ppm [6] of 90%. The pest or weed control at 100 ppm [7] was 90% and the pest or weed control at 100 ppm [8] was 80%.

`C[Si](Cn1ccnc1)(c1ccccc1)c1ccc(-c2ccccc2)cc1` (stereo not shown) [(1,1'-Biphenyl-4-yl)(1H-imidazol-1-ylmethyl)methyl(phenyl)silane] showed a pest or weed control at 100 ppm [1] of 100%, a pest or weed control at 100 ppm [2] of 0% and a pest or weed control at 100 ppm [3] of 80%. The pest or weed control at 100 ppm [4] was 0%, the pest or weed control at 100 ppm [5] was 100% and the pest or weed control at 100 ppm [6] was 80%. The pest or weed control at 100 ppm [7] was 0% and the pest or weed control at 100 ppm [8] was 0%.

In the case of `C[Si](Cn1ccnc1)(c1ccc(F)cc1)c1ccc(-c2ccccc2)cc1` (stereo not shown) [(1,1'-Biphenyl-4-yl)(4-fluorophenyl)(1H-imidazol-1-ylmethyl)methylsilane], the pest or weed control at 100 ppm [1] is reported as 80%, the pest or weed control at 100 ppm [2] is reported as 0% and the pest or weed control at 100 ppm [3] is reported as 100%. For the same compound, the pest or weed control at 100 ppm [4] was 50%, the pest or weed control at 100 ppm [5] was 100% and the pest or weed control at 100 ppm [6] was 70%. It also gave a pest or weed control at 100 ppm [7] of 0%.

Work on `CC(C)(C)O[Si](C)(Cn1ccnc1)c1ccccc1` (stereo not shown) [(1,1-Dimethylethoxy)(1H-imidazol-1-ylmethyl)methyl(phenyl)silane] yielded a pest or weed control at 100 ppm [1] of 0%, a pest or weed control at 100 ppm [2] of 0% and a pest or weed control at 100 ppm [3] of 0%. The pest or weed control at 100 ppm [4] was 0%, the pest or weed control at 100 ppm [5] was 100% and the pest or weed control at 100 ppm [6] was 0%. It also gave a pest or weed control at 100 ppm [7] of 0% and a pest or weed control at 100 ppm [8] of 0%.

`CC(C)O[Si](Cn1ccnc1)(OC(C)C)c1ccccc1` [(1H-Imidazol-1-ylmethyl)phenylbis(2-propoxy)silane] showed a pest or weed control at 100 ppm [1] of 0%, a pest or weed control at 100 ppm [2] of 0% and a pest or weed control at 100 ppm [3] of 0%. For the same compound, the pest or weed control at 100 ppm [4] was 70%, the pest or weed control at 100 ppm [5] was 0% and the pest or weed control at 100 ppm [6] was 0%. For the same compound, the pest or weed control at 100 ppm [7] was 0%.

For `C[Si](Cn1ccnc1)(c1ccc(Cl)cc1)c1ccccc1Cl` (stereo not shown) [(2-Chlorophenyl)(4-chlorophenyl)(1H-imidazol-1-ylmethyl)methylsilane], the pest or weed control at 100 ppm [1] was 100%, the pest or weed control at 100 ppm [2] was 0% and the pest or weed control at 100 ppm [3] was 80%. For the same compound, the pest or weed control at 100 ppm [4] was 80%, the pest or weed control at 100 ppm [5] was 100% and the pest or weed control at 100 ppm [6] was 0%. For the same compound, the pest or weed control at 100 ppm [7] was 0%.

`CC(n1ccnc1)[Si](C)(c1ccc(F)cc1)c1ccc(F)cc1` (stereo not shown) [bis(4-Fluorophenyl)methyl[1-(1H-imidazol-1-yl)ethyl]silane] showed a pest or weed control at 100 ppm [1] of 0%, a pest or weed control at 100 ppm [2] of 0% and a pest or weed control at 100 ppm [3] of 0%. It also gave a pest or weed control at 100 ppm [4] of 100%, a pest or weed control at 100 ppm [5] of 100% and a pest or weed control at 100 ppm [7] of 90%. It also gave a pest or weed control at 100 ppm [8] of 0%.

Source: patent US4496551A (priority 1983, dated 1985)
